# Measured values from ChEMBL document CHEMBL3507680, “University of Dundee, Gates Library screen for HepG2 cell viability”.
# Assay: Human HepG2 cell viability assay in 384 well format
# Type: toxicity, cell-based
# Set-up: dose 125 nL, time 70.5 hour; concentration not given beside the values
# Conditions: HepG2 cells, read-out: Inhibition
row,SMILES,cytotoxicity at 70.5 h [%]
1,CCOc1ccc(-c2nc(C(=O)NCC3CCOC3)cs2)cc1 (stereo not drawn),-7.97
2,CCc1nc2n(n1)CCCC2NC(=O)Nc1cc(OC)ccc1C (stereo not drawn),3.05
3,CCn1ccnc1CN1CCOC(Cn2cccn2)C1 (stereo not drawn),22.6
4,Cc1ccc2c(c1)c(C)cc(=O)n2CCC#N,0.982
5,Cc1ccsc1C(=O)N1CCc2ncc(CN3CCCC3)n2CC1,-4.02
6,CNc1nc(C2CCCN2C(C)=O)nc2c1CN(C1CCCC1)CC2 (stereo not drawn),-4.73
7,CCn1nnc2c1C(COC)CN(C(=O)Cc1cccs1)C2 (stereo not drawn),-7.34
8,CC(C)Cc1nc(CN2CCC(NC(=O)c3cccs3)CC2)no1,-6.12
9,CCC(CO)N(Cc1ccccn1)C(=O)c1cccc(C#N)c1 (stereo not drawn),-1.64
10,FC(F)(F)CCc1ccnc(N2CCN(Cc3ccccn3)CC2)n1,6.16
11,Cc1ccc(CCNC(=O)NC2CCN(CC(F)(F)F)C2=O)cn1 (stereo not drawn),-5.39
12,CCNC(c1ccc(C)cc1)c1cccnc1 (stereo not drawn),0.38
13,CN(C)c1cc(CNC(=O)c2c(F)cccc2F)ccn1,1.27
14,Fc1ccccc1Cc1noc(CN2CCC(C3CCCCC3)C2)n1 (stereo not drawn),34.7
15,Cc1ccccc1[C@@H]1CN(Cc2c(C)noc2C)C[C@H]1C(=O)O,21.7
16,CC(C)C1CN(C(=O)c2ccc(Cl)cn2)CCCN1CC1CC1 (stereo not drawn),-6.77
17,CC1(C)Cc2c(cnn2-c2cccc(F)c2)C(NC2CCSCC2)C1 (stereo not drawn),9.46
18,O=C(NCCc1csc(N2CCCC2)n1)N(C1CCCC1)C1CC1,-2.69
19,COC(=O)C1=NN2C(=NS(=O)(=O)c3ccccc32)N1,-89.7
20,CNc1ccnc(NCCSc2nccn2C)n1,-1.64
21,CC(=O)NCC(=O)N1CCC2(CC1)C(=O)N(CC1CC1)c1ccccc12,-11.7
22,O=C(C1CN(c2ncc(F)cn2)CC12CCOCC2)N1CCOCC1 (stereo not drawn),-9.96
23,Cc1noc(CN(C)CC2(O)CCCN(CCC3CCCCC3)C2=O)n1 (stereo not drawn),-0.981

row,SMILES,cytotoxicity at 70.5 h [%]
1,CN1CCC(N(C)C(=O)c2cnc3c(cnn3C3CCCC3)c2)CC1,-7.87
2,CCOc1cc(/C=C/c2ncc(C(=O)O)s2)cc(Br)c1OC,-10.4
3,Cn1cnc2c1C(COCc1cccnc1)N(Cc1nccs1)CC2 (stereo not drawn),-1.3
4,Cc1nc(C)n(C2CCCN(C(=O)c3cc(C4CC4)on3)C2)n1 (stereo not drawn),1.36
5,N#Cc1ccsc1C(=O)N1CCCCC1Cn1cccn1 (stereo not drawn),9.01
6,CC(C)(C)C(=O)N1CCCC1c1nc(O)cc(-c2ccccn2)n1 (stereo not drawn),-8.73
7,CCN(Cc1ccncc1)CC1(O)CCN(C(=O)c2cccc(C)n2)C1 (stereo not drawn),-4.96
8,COc1ccc(CN2C[C@H](O)C[C@H]2c2nc(-c3ccccc3)no2)cc1,9.25
9,CCCc1cc(NCc2noc(COC)n2)n2nccc2n1,-4.21
10,O=C(NCCn1ccnc1)c1cccc(F)c1,-11.3
11,O=C1N(C2CCCCC2)CCCC12CCN(S(=O)(=O)c1cccnc1)C2 (stereo not drawn),-5.02
12,O=S(=O)(NCc1ccc(S(=O)(=O)N2CCCC2)s1)c1ccc(Cl)c(Cl)c1,-22.7
13,CCC(C)c1ccc(NC(=O)C2CCN(C(=O)COC)CC2)cc1 (stereo not drawn),-6.71
14,c1cnc(N2CCC3(CC2)CN(CC2CC2)c2ccccc23)nc1,12.1
15,CCN1CC(C(=O)N2CCC(Oc3ccccc3C)CC2)CC1=O (stereo not drawn),-7.02
16,CC(=O)N1CCC2(CC1)CN(C)C(=O)C[C@H]2C(F)(F)F,-7.04
17,CO[C@@H]1CN(c2ccccc2)S(=O)(=O)[C@@]12CCN(Cc1cncs1)C2,-2.7
18,O=c1c2ccccc2nc2n1C(CSc1cccc(C(F)(F)F)c1)CN2 (stereo not drawn),-2.38
19,Cc1cc(C)n(CC2CCCN2CC(=O)Nc2nncs2)n1 (stereo not drawn),30
20,CN(C)CCCNC(=O)CNC(=O)N1CCc2c([nH]c3ccccc23)C1,35.2
21,COCc1nc2cc(NCc3scnc3C)ccc2o1,-5.1
22,COCCC(=O)N1CCc2nc(N3CCOCC3)nc(NC(C)C)c2C1,-17
23,COCC(=O)N1CCN(S(=O)(=O)c2ccccc2)[C@H]2CS(=O)(=O)C[C@H]21,-7.41

row,SMILES,cytotoxicity at 70.5 h [%]
1,O=C1CSC(c2ccc(O)c(Cl)c2)c2c(n(C3CCOCC3)[nH]c2=O)N1 (stereo not drawn),6.82
2,N#Cc1c(F)cccc1Nc1cnn(CC(=O)N2CCOCC2)c1,39.8
3,CCOC(=O)Cn1cccc(S(=O)(=O)N2CCCC2)c1=O,-26.6
4,O=C(c1cccnc1)N1C[C@@H]2CN(CCN3CCCC3)C(=O)[C@@H]2C1,-6.24
5,O=C(Cc1ccc(Cl)cc1)N1CCC(O)(C(F)(F)F)C1 (stereo not drawn),-2.11
6,CNC(=O)[C@H]1C[C@@H]2CN(Cc3cccnc3OC)C[C@@H]2N1C(C)=O,-9.57
7,CC(C)[C@@H]1CN(C(=O)CCn2ccccc2=O)C[C@H]1NS(C)(=O)=O,-7.19
8,CC(=O)NC(C(=O)N1CCn2cncc2C1)C(C)C (stereo not drawn),-2.16
9,Cn1ncnc1CNC1CCc2cc(Cl)ccc21 (stereo not drawn),-19.7
10,CCN(CC)C(=O)[C@@H]1C[C@@H](n2cc(-c3cccc(OC)c3)nn2)CN1,-15.1
11,COc1ncccc1C(=O)NCCn1nc(C)ccc1=O,-8.68
12,CCn1ccnc1CN1CCN(CCC(=O)NC2CCCCC2)CC1,-6.92
13,O=C(c1cnc(O)cc1O)N1CCCC(CCc2ccccc2F)C1 (stereo not drawn),-11.4
14,CC(C)(C)c1cc(=O)[nH]c(-c2ccccc2CN2CCCCCC2)n1,-3.97
15,Cc1c(COC(C)C)cccc1NC(=O)N1CCC(N2CCCC2)C1 (stereo not drawn),9
16,CC(C)c1nc2c(n1C)CCN(Cc1nc(-c3ccoc3)no1)C2,-4.46
17,O=C(Nc1cc(C2CCOCC2)[nH]n1)c1ccc(Cl)cn1,-1.48
18,CCc1ncnc(N2CCOCC2C2CC2)c1F (stereo not drawn),-15.6
19,CS(=O)(=O)NCC(=O)NC1CCCN(c2ccccn2)C1 (stereo not drawn),-9.78
20,CSc1ccccc1CN1C[C@H]2C(=O)N(CC3CC3)C[C@@]2(C(=O)O)C1,-0.998
21,COc1cc(OC)c(-n2nnc(C(=O)O)c2C)cc1Cl,1.66
22,CC1CCN(C(CNC(=O)CCn2cccn2)c2cccs2)CC1 (stereo not drawn),-1.29
23,CN1C(=O)[C@H](OC(N)=O)[C@@H](C(=O)Nc2ccccc2)C12CCNCC2,-10.7

row,SMILES,cytotoxicity at 70.5 h [%]
1,Clc1ccccc1-c1nnc(CNCCn2cccn2)o1,-8.51
2,COc1ccc([C@@H](C)n2ccnc2-c2cc3n(n2)CCCNC3)cc1,18.8
3,CCOCC1CN(Cc2ccco2)Cc2ccnn2C1 (stereo not drawn),-5.17
4,Cc1cc(CN2CC[C@H]3C[C@H](C(=O)N(C)C)O[C@@H]3C2)no1,-13.6
5,O=C(c1cc(C2CC2)[nH]n1)N1CCN(Cc2ccccc2)CC1,-4.29
6,CS(=O)(=O)c1ccccc1-n1cc(NC(=O)CC(F)(F)F)cn1,-4.54
7,O=C(N[C@@H]1c2ccccc2C[C@@H]1O)C1CCN(Cc2ccco2)CC1,-0.979
8,Cc1cc(C)cc(OCCC(=O)NC2CC(=O)N(C)C2)c1 (stereo not drawn),-0.646
9,O=C(c1cc(Cn2ccc3ccccc32)[nH]n1)N1CCOCC1,-0.75
10,Cc1ccnc(NCc2cn3nc(C)sc3n2)n1,1.46
11,CC(CNS(C)(=O)=O)Oc1cccc(Cl)c1 (stereo not drawn),3.7
12,Cc1cnn(C2CN(CC(=O)NCCc3ccsc3)C2)c1,-13.7
13,CCOC(=O)CNC(=O)NCc1cc(C)n(-c2ccc(OC)cc2)c1C,-22.5
14,CN(C)S(=O)(=O)N1CCN(c2nccc(C(F)(F)F)n2)CC1,-0.547
15,O=C(Cc1ccc2c(c1)CCO2)N1CCN(c2ccncc2)CC1,6.77
16,O=C(c1ncccn1)N1C[C@@H]2COC[C@]2(c2nnc(C3CC3)o2)C1,9.47
17,O=c1ccc(-c2cccs2)nn1CN1CCN(Cc2ccccc2)CC1,-13.1
18,COCCN1CCC(CNC(=O)C2(NC(C)=O)CCCCC2)CC1,-8.37
19,CN(Cc1ccco1)Cc1cnc2n1CCN(S(C)(=O)=O)CC2,26.4
20,Cc1nn(C)c(C)c1CC(=O)N1CCCC(CNS(C)(=O)=O)C1 (stereo not drawn),-0.898
21,COC1CCCN(C(=O)NCC(F)F)C1 (stereo not drawn),-5.69
22,COc1cc(CC(O)CO)c(OC)c2c1OCO2 (stereo not drawn),30.2
23,CC[C@@]1(O)CCN(Cc2cc(C3CCCCC3)no2)C[C@H]1O,-2.92

row,SMILES,cytotoxicity at 70.5 h [%]
1,CCN1CCN(S(=O)(=O)c2c[nH]c(C(C)C)n2)c2ccccc21,-5.4
2,NC(=O)CC1CCN(C(=O)c2csc(-c3ccccc3F)n2)CC1,-18.8
3,CNC[C@H]1CC[C@H](c2cc(CN(C)C(=O)c3cnccn3)n(C)n2)CC1,-8.17
4,CN(C)C(=O)Cc1ccc(NC(=O)NC2CCCCC2)cc1,-10.4
5,CS(=O)(=O)N1CCN(Cc2ccc(F)cc2Br)CC1,-9.98
6,Cc1cc(C)nc(Nc2cccc(C3CCCN(C)C3)n2)n1 (stereo not drawn),0.625
7,O=C(NCCOc1ccc2c(c1)OCO2)C1CC(=O)N(CC2CC2)C1 (stereo not drawn),1.74
8,Cc1cnc(C(=O)N2CCC(COCc3ccccc3)C2)cn1 (stereo not drawn),-2.03
9,Cn1ccnc1C(=O)NCCS(=O)(=O)c1ccc(C(C)(C)C)cc1,-3.28
10,O=C(O)c1cc(-c2ccccc2)ns1,-20.2
11,Cc1nccc([C@@H]2C[C@@H]3CCN(Cc4cccs4)C[C@H]3O2)n1,4.44
12,COCc1nc(C2CC2)nn1-c1cccc(F)c1,-7.42
13,COc1ccc(-c2cc3nc(CCNC(=O)CN(C)C)nn3cn2)cc1,-1.8
14,CCC(NC1CSCCSC1)c1ccc(S(C)(=O)=O)cc1 (stereo not drawn),-14.2
15,N#Cc1cccnc1NCc1cccnc1N1CCC(C(N)=O)CC1,-9.67
16,CCCS(=O)(=O)N1C[C@@H]2CN(Cc3ccoc3)CCO[C@@H]2C1,6.66
17,O=c1c2cn[nH]c2nc(SCCN2CCCC2)n1-c1ccccc1,-6.58
18,Fc1cnc(N2CCOC3(CCN(Cc4cccs4)CC3)C2)nc1,-6.76
19,Cn1cccc(NC(=O)NCc2cccc(CO)c2)c1=O,7.6
20,c1ccc(C(c2ccccc2)N2CCN(CCn3cncn3)CC2)cc1,-10.4
21,O=C(N1CCN(CCO)CC1)C1(O)Cc2ccccc2C1,-4.44
